US12606520B2, “Calpain-2 inhibitor compounds and methods of treatment” (WESTERN UNIVERSITY OF HEALTH SCIENCES, priority 2020, dated 2026)

What was measured:
[1] = PK in mice after iv injection of liposomal NA112: brain; assay type: in vivo; details: mice iv 10 mg/kg liposomes, 24 hr; BLQ: below the limit of quantification, assay sensitivity 2 ng/ml
[2] = tested on: cell death in cortex; assay: Cell death in cortex 24 h after TBI in rats; assay type: in vivo; details: 1 mg/kg i.p. at 1 h and 8 h after TBI
Protocol: We also performed the same model of TBI in male and female mice and in male and female rats. In all cases, NA184 was injected i.p. at 1 mg/kg. For the rat experiments, NA184 was injected twice at 1 h and 8 h after TBI. Animals were sacrificed 24 h after TBI and calpain activity was assayed in brain and cell death was analyzed in cortex. […] In addition, there was a highly significant correlation between calpain-2 activity and cell death in rats (FIG. 23). R^2 was 0.61 and p<0.005.

[3] = biological target: T1, recombinant human calpain-2 (hcalpain-2) (Homo sapiens, UniProt P17655); assay: Inhibition of recombinant human calpain-2; assay type: biochemical
T1 sequence (P17655 1-700): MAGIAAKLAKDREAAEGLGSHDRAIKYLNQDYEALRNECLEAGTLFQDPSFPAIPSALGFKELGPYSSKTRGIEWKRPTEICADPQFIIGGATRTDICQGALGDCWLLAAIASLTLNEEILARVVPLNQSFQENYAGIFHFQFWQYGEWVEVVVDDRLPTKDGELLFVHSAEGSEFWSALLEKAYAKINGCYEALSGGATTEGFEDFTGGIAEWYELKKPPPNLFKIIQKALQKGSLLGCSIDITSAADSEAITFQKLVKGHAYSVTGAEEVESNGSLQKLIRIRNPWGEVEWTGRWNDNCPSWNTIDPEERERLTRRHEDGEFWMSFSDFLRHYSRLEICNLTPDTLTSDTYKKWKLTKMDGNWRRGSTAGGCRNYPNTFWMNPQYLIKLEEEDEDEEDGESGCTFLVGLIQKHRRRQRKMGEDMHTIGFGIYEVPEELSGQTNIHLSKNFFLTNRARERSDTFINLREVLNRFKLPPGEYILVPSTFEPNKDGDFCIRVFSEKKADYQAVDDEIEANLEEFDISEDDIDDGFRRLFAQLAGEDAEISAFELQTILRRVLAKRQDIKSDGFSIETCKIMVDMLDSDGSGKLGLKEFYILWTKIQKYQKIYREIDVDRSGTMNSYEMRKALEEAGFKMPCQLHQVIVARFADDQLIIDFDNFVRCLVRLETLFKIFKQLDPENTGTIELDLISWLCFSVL
T1 sequence (P04632 1-268 partner): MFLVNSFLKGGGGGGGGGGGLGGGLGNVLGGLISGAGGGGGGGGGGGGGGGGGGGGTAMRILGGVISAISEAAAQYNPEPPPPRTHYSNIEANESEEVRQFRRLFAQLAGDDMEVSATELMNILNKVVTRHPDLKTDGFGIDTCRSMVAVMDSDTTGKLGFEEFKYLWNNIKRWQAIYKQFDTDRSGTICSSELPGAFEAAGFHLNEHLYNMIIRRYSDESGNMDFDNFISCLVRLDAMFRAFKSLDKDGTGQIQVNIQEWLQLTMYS
Protocol: (§1) Various concentrations of NA112 in the liposomal formulation were incubated with human calpain-1 (purified from erythrocytes, ecalpain-1) or a recombinant human calpain-2 (hcalpain-2) and calpain activity assayed as in FIG. 1. IC50 were determined and transformed into Ki values (FIG. 10A, 10B). Values previously obtained with NA112 dissolved in DMSO are shown for comparison (FIG. 10B).
(§2) Cerebellar homogenates from wild-type (WT) or calpain-1 Knock-out (KO) mice were incubated with 20 μM calcium to activate calpain-1 or with 2 mM calcium to activate calpain-2, respectively, and increasing concentrations of NA184.
(§3) Like in NA112, there are 2 chiral centers in NA184. The inhibitory activity of the compounds NA184A (S-S isomer) and NA184B (S-R stereoisomer) against erythrocyte human calpain-1 (ecalpain-1) and recombinant human calpain-2 (hcalpain-2) were determined.

[4] = biological target: T2, human calpain-1 (purified from erythrocytes, ecalpain-1) (Homo sapiens, UniProt P07384); assay: Inhibition of human calpain-1 purified from erythrocytes; assay type: biochemical
T2 construct: human calpain-1 (purified from erythrocytes, ecalpain-1); from tissue; host or cells: human erythrocytes
T2 sequence (P07384 1-714): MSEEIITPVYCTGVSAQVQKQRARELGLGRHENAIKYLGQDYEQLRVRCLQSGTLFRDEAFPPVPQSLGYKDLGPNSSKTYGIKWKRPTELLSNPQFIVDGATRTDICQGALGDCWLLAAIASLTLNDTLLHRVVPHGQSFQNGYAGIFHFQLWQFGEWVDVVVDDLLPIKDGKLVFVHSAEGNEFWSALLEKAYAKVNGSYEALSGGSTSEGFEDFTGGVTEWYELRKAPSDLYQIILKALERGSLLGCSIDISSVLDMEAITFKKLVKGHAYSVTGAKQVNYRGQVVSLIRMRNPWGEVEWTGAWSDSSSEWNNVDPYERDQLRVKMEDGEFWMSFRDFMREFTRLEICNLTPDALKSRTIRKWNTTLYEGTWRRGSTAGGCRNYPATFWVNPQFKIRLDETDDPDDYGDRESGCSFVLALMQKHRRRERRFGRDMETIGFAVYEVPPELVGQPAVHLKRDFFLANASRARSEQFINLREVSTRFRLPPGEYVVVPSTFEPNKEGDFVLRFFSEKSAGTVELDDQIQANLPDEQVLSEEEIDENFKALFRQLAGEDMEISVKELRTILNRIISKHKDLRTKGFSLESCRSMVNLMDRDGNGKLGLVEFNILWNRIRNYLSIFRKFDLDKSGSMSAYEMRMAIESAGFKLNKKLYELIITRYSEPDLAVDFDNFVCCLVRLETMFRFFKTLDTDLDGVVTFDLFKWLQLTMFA
T2 sequence (P04632 1-268 partner): T1 sequence (P04632 1-268 partner)
Protocol: as §1, §2, §3

With `CCC(NC(=O)[C@H](CC(C)C)NC(=O)NCc1ccccc1)C(=O)C(=O)NCc1cc(OC)cc(OC)c1` (mixture of isomers) [NA112, (2S)-2-(3-benzylureido)-N-(1-((3,5-dimethoxybenzyl)amino)-1,2-dioxopentan-3-yl)-4-methylpentanamide] the “Brain concentration A1” value [1] was “BLQ”, the “Brain concentration A2” value [1] was “BLQ” and the “Brain concentration Mean” value [1] was “BLQ”.
In the case of `CCC(NC(=O)[C@H](CC(C)C)NC(=O)NCc1ccccc1)C(=O)C(=O)NCc1cccc(Cl)c1OC` (stereo partly drawn) [NA184, (2S)-2-(3-benzylureido)-N-(1-((3-chloro-2-methoxybenzyl)amino)-1,2-dioxopentan-3-yl)-4-methylpentanamide], the “Cell death in cortex, male and female rats” value [2] is reported as “significantly prevented cell death”, the IC50 [3] is reported as 85 nM and the Ki [3] is reported as 54 nM. For the same compound, the IC50 [4] was 543 nM.
